These results are taken from patent US5473074A, “Adenosine diphosphoribose polymerase binding nitroso aromatic compounds useful as retroviral inactivating agents, anti-retroviral agents and anti-tumor agents-54” (priority 1992, dated 1995).

Data set [1] deals with Zn(HIV1-F1), N-terminal CCHC zinc finger of the HIV-1 NC protein (Human immunodeficiency virus type 1 lw12.3 isolate, UniProt Q70622). Description: NMR studies of zinc ejection from Zn(HIV1-F1). Particulars: 2 mM NOBA. The class given is biochemical. As for the experimental part: The * and + symbols denote the aromatic proton signals of the zinc-coordinated and zinc-free His 9 residue. Upon completion of the reaction, reflected by complete ejection of zinc (t=90 min), 50% of the NOBA remained unreacted indicating a 1:1 reaction stoichiometry. NOBA (3-nitrosobenzamide), was synthesized described elsewhere in this application.
To determine if NOBA is capable of ejecting zinc from retroviral-type zinc fingers, NMR studies were performed on a peptide with amino acid sequence corresponding to the N-terminal CCHC zinc finger of the HIV-1 NC protein, Zn(HIV1-F1), South, et al., J. Am. Chem. Soc. 111:395-396 (1989), South, et al., Biochem Pharm. 40:123-129 (1990), Summers, et al., Biochemistry 29:329-340 (1990). NMR spectra of Zn(HIV-F1) were performed before and after the addition of NOBA (3-nitrosobenzamide). […] Chem Soc. 111:395-396 (1989), and three-dimensional structural studies have shown that the peptide adopts a structure that is essentially identical to the structure of the corresponding region in the intact NC protein, South, et al., Biochemistry 29:7786-7789 (1990). The down-field region of the ^1 H NMR spectrum showing the signals due to the aromatic proton of His 9 and Phe 2 is illustrated in FIG. 10 (bottom). […]

In data set [2] the test system is normal cells (neutrophil leukocytes and bone marrow or peripheral blood stem cells). The data set can be described thus: Functions/viability of normal cells in absence or presence of compounds.
Description: Experiments were performed in which the functions of various cancer cells (855-2 and HL-60 leukemia cells, D32, D37 and CRL 7712 glioblastoma cell lines, 186 medulla tumor cell line, L1210 murine leukemia cell line, MDA-468 human breast tumor cell line) and normal cells (neutrophil leukocytes and bone marrow or peripheral blood stream cells) were assessed in the absence or presence of the compounds.
The subject of data set [3] is H9 cells. Description: [3H]thymidine uptake, H9 cells. The class given is cell-based, human. Particulars: 10% FCS.
In data set [4] the test system is HIV-1. Description: Anti-HIV action on stimulated human lymphoblasts, virus titer. The format is cell-based. The following applies: 10 μM; 30 min exposure; virus alone 5.25. The protocol: VIII. Anti-HIV action of NOBP, NOBA and NOQ on stimulated human lymphoblasts
Exposure to the two drugs was only for 30 minutes at the commencement of viral infection, and drugs were never re-added. The results given in Table III provide the ID50 of HIV titer 10 days after infection of cell cultures with HIV.

In data set [5] the test system is 855-2 cells. The data set can be described thus: Colony formation (CFU) in semi-solid medium, 855-2. The class given is cell-based, human. Particulars: single cells in semi-solid medium.
For data set [6], the system named is 855-2 cells. Description: [3H]thymidine uptake / growth, 855-2 cells. The format is cell-based, human.
In data set [7] the test system is normal rhesus bone marrow stem cells. Description: CFU stem cell toxicity assay, FIG. 5A. Particulars: 10 μM.
Data set [8] deals with HIV-1 (LAV strain). The data set can be described thus: HIV-1 inactivation assay in PHA-stimulated PBL (FIG. 13A, B). The class given is cell-based. As for the experimental part: The assay was performed as described in FIG. 13A except that the 30 min. preincubation of virus with NOBA was carried out at 0, 22 or 37° C.
An HIV-1 stock having an infectivity titer of 100,000 TCID50 was incubated for 30 min. at 22° C. with either of the drugs. Control HIV samples, containing no drugs, were incubated in the same manner. […] At the end of this incubation cultures were assayed for productive infection by an immunoassay for HIV-1 antigens and by reverse transcriptase as described in McDougal, et al., J. Immunol Methods 76:171-183 (1985). Virus titers were expressed as percentile values (percent infected cultures) compared to the controls, containing HIV dilutions which were not preincubated with the C-nitroso drugs. In a separate series of experiments, HIV-1 dilutions and C-nitroso drugs (see upper abscissa) were not preincubated but were added simultaneously to lymphocytes in exactly the same concentrations as described previously (i.e., following preincubation) and viral growth monitored 9 days later. […] Chem. Soc. 111:395-396 (1989), South, et al., Biochem Pharm. 40:123-129 (1990), Summers, et al., Biochemistry 29:329-340 (1990), the inhibition of HIV-1 propagation was profound when C-nitroso drugs were preincubated with HIV-1, whereas only negligible effect on HIV-1 growth occurred when both drugs and virus were added simultaneously.
Experiments were performed in which the incubations with NOBA was carried out at 0°, 22°, and 37° C. […] In agreement with the negligible cytotoxic effect of C-nitroso drugs on non-tumor cells described elsewhere in this application, human lymphocytes tolerated NOBA up to 50 μM without major changes in cell metabolism, which was assayed by quantitative dye reduction as described in Mosaran, J. Imm. Methods 65:55-63 (1983).

Data set [9] deals with calf thymus ADPRT (Bos taurus, UniProt P18493). The data set can be described thus: ADPRT polymerase activity inhibition/inactivation (I50).
Description: The compounds of the subject invention were tested for their ability to inactivate the polymerase activity of adenosinediphosphoribosyl transferase (ADPRT). Assays were performed according to the method of Buki and Kun, Biochem. 27:5990-5995 (1988), using calf thymus ADPRT.
Assay conditions: ADPRT, 0.4 μg; coDNA, 4 μg; inhibitor diluted
between 0.8 and 600 μM, in 50 μl of 50 mM TrisHCl, 50 mM KCl, 5 mM
2mercaptoethanol, 0.5 mM EDTA, 0.1 mM NAD ([32Plabelled), pH 7.5.
Polymerization at 25° C. for 4 minutes.
Data set [10] has as its system L1210 murine leukemia. The data set can be described thus: L1210 murine leukemia in vivo in BDF mice. Details: species or system mouse. Particulars: 2 mg/kg i.p. twice a day.

Molecules are shown by their SMILES.

Sequence of calf thymus ADPRT (P18493 whole entry): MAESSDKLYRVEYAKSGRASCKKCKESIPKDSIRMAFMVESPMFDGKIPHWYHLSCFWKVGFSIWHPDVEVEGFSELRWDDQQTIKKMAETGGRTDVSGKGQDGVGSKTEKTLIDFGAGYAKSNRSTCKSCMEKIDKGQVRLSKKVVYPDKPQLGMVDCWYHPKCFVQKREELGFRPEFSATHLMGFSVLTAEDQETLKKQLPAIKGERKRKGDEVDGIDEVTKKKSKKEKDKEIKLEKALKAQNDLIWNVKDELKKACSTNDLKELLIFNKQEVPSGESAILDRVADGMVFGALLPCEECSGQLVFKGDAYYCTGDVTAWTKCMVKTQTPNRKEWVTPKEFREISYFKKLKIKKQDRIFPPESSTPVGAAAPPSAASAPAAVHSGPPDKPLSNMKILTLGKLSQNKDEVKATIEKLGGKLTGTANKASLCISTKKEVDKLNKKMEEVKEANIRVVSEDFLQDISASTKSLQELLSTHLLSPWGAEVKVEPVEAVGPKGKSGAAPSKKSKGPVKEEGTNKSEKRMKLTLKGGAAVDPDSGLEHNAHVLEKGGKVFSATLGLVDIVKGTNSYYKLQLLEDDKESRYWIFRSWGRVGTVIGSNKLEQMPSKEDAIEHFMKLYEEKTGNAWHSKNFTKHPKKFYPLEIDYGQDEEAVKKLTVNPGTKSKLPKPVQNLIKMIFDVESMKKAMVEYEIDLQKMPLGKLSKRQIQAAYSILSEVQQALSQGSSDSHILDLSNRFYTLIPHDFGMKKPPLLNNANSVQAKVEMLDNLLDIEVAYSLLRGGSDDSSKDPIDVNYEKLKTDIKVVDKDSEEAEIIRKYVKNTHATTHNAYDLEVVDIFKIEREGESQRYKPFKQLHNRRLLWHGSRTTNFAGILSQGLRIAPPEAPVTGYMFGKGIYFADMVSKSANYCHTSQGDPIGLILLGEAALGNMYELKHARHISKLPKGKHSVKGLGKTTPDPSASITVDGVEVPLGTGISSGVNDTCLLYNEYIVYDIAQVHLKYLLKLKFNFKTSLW

By inhibition is commonly meant the relative decrease from the control value, in per cent. Read a high inhibition as a response far below the control. Usually IC50 stands for the concentration at which inhibition is half-maximal. Read a high IC50 as a need for much substance. For the molecule `NC(=O)c1cccc(N=O)c1` [NOBA, 3-nitrosobenzamide], the “time of complete ejection of zinc from Zn(HIV1-F1)” value in data set [1] (1 mM Zn(HIV1-F1), D2O, pH* 6.2, 30° C.) came out at 90 min. For the same molecule, the NOBA remaining unreacted in [1] (90 min) is 50%. The “effect on normal stem cell colony formation (FIG. 5), in words” value in data set [2] (anti-leukemic doses, soft agar, rhesus bone marrow or human peripheral blood stem cells) is recorded as “minimal effect on normal cells”. Besides, the “effect on viability of normal cells, in words” value in data set [2] (tumor cell inhibitory concentrations) is recorded as “not to affect adversely the viability of normal cells”. In addition, the “inhibition of thymidine uptake, H9” value in data set [3] (250 μM) was “almost complete inhibition”. Also, in data set [3] (Homo sapiens, H9, 10 μM), the inhibition at 10 µM is roughly 75%. The molecule also gave an inhibition at 100 µM in data set [3] (Homo sapiens, H9, 100 μM) of roughly 85%. Moreover, in data set [4], the “Virus Titer (log ID50), 10 days” value is listed as 1.05 log ID50. Besides, in [5], the “colony formation, 855-2, in words” value is “inhibit the ability of human leukemic cells (855-2 and HL-60) to form colonies”. In data set [6] (10 μM, increasing FCS), the “growth arrest of 855-2 cells at increasing serum concentration” value is on record as “Growth arrest occurs irrespective of the concentration of FCS”. Moreover, the “relative potency, 855-2” value in data set [6] (10% fetal bovine serum) is “potent inhibitory effects regardless of the source of growth factor activity”. Also, the “CFU stem cell toxicity, in words” value in data set [7] is “non-toxic”. Besides, the log reduction at 100 µM in [8] (Human immunodeficiency virus 1, 0.5 h, 100 μM, 30 min, 22° C., 9 days, read-out: decrease of infectious virus available to cause 50% infected cultures) amounted to 4. In addition, in data set [8] (NOBA vs NOBP), the “relative depression of HIV-1 propagation, in words” value was “greater depression of HIV-1 propagation”. For the same molecule, the “temperature of maximal inactivation of HIV-1” value in [8] (preincubation at 0°, 22° and 37° C.) was 37 °C. For the same molecule, the IC50 in data set [9] amounted to 15 µM. For the same molecule, the “life span of L1210-bearing BDF mice” value in [10] (6 consecutive days, untreated 10 days, 35 days = end of observation) is 35 days. Further, in data set [10] (6 days), the “in vivo chemotherapeutic response, in words” value was “highly significant in vivo chemotherapeutic response” and the “toxic effects in mice” value is “no toxic effects”.
